This note sets out measurements from patent publication US8716312B2, “Inhibitors of diacylglycerol acyltransferase” (Merck Sharp & Dohme Corporation, priority 2008, dated 2014).

The target of this experiment is T1, human DGAT1 enzyme (Homo sapiens, UniProt O75907).
T1 sequence (O75907 1-488): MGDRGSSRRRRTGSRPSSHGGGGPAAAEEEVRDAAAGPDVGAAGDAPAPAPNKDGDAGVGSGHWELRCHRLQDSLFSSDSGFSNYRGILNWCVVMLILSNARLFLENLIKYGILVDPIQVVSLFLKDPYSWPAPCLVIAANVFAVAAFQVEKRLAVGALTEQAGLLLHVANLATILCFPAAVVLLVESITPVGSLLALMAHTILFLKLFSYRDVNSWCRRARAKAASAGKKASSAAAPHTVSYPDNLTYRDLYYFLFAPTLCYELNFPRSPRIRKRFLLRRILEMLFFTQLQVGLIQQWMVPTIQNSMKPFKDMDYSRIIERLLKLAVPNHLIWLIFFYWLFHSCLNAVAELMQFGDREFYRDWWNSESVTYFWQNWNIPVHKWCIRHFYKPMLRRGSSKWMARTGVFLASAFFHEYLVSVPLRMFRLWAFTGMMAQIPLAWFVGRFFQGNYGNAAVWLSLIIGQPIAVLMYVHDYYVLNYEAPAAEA
The experiment in a line: in vitro DGAT1 inhibition assay (microsomes, [14C]-palmitoyl-CoA, SPA beads).
Experimental: The in vitro assay to identify DGAT1 inhibitors uses human DGAT1 enzyme expressed in Sf9 insect cells prepared as microsomes. The reaction is initiated by the addition of the combined substrates 1,2-dioleoyl-sn-glycerol and [^14C]-palmitoyl-Co A and incubated with test compounds and microsomal membranes for 2 hours at room temperature. The assay is stopped by adding 0.5 mg wheat germ agglutinin beads in assay buffer with 1% Brij-35 and 1% 3-cholamidopropyldimethyl-ammonio-1-propane sulfonate. Plates are sealed with TopSeal and incubated for 18 hours to allow the radioactive triglyceride product to come into proximity with the bead. Plates are read on a TopCount instrument.
Percent inhibition was calculated as the percent of (test compound inhibition minus non-specific binding) relative to (total binding minus non-specific binding). IC50 values were determined by curve fitting the data to a Sigmoidal dose-response in GraphPad Prism utilizing the following equation: Y=A+(B−A)/(1+10^((Log IC50−X))), where A and B are the bottom and top of the curve (highest and lowest inhibition), respectively, and X is the logarithm of concentration.
For the compound `CC1CCCN(c2nc(C(F)(F)F)c(C(=O)Nc3ccc(N4CCN(c5ccccc5F)CC4)nc3)o2)C1` (stereo not shown) [Compound 164, N-(6-(4-(2-fluorophenyl)piperazin-1-yl)pyridin-3-yl)-2-(3-methylpiperidin-1-yl)-4-(trifluoromethyl)oxazole-5-carboxamide], the IC50 (as a rule, the concentration at which inhibition is half-maximal) lay within 11 to 100 nM.

The compound `CC1CCCN(c2nc(C(F)(F)F)c(C(=O)Nc3ccc(N4CCc5c(cccc5C(=O)O)C4)nc3)o2)C1` (stereo not shown) [Compound 168, 2-(5-(2-(3-methylpiperidin-1-yl)-4-(trifluoromethyl)oxazole-5-carboxamido)pyridin-2-yl)-1,2,3,4-tetrahydroisoquinoline-5-carboxylic acid] yielded an IC50 of 101 to 500 nM. `CC1CCCN(c2nc(C(F)(F)F)c(C(=O)Nc3ccc(N4CCN(c5ccccn5)CC4)nc3)o2)C1` (stereo not shown) [Compound 169, 2-(3-methylpiperidin-1-yl)-N-(6-(4-(pyridin-2-yl)piperazin-1-yl)pyridin-3-yl)-4-(trifluoromethyl)oxazole-5-carboxamide]: the IC50 fell in the range of 11 to 100 nM. The result for `CC1CCCN(c2nc(C(F)(F)F)c(C(=O)Nc3ccc(N4CCN(c5ccccc5O)CC4)nc3)o2)C1` (stereo not shown) [Compound 171, N-(6-(4-(2-hydroxyphenyl)piperazin-1-yl)pyridin-3-yl)-2-(3-methylpiperidin-1-yl)-4-(trifluoromethyl)oxazole-5-carboxamide] reads 11 to 100 nM; that for `CC1CCCN(c2nc(C(F)(F)F)c(C(=O)Nc3ccc(N4CCc5c(cccc5Nc5ccccc5F)C4)nc3)o2)C1` (stereo not shown) [Compound 174, N-(6-(5-(2-fluorophenylamino)-3,4-dihydroisoquinolin-2(1H)-yl)pyridin-3-yl)-2-(3-methylpiperidin-1-yl)-4-(trifluoromethyl)oxazole-5-carboxamide], 101 to 500 nM. Compound `O=C(Nc1ccc(N2CCN(C(=S)Nc3ccccc3F)CC2)nc1)c1oc(N2CCC(c3ccccc3)CC2)nc1C(F)(F)F` [Compound 181, N-(6-(4-(2-fluorophenylcarbamothioyl)piperazin-1-yl)pyridin-3-yl)-2-(4-phenylpiperidin-1-yl)-4-(trifluoromethyl)oxazole-5-carboxamide] registered an IC50 of 11 to 100 nM. The result for `N#C/N=C(/N1CCCC1)N1CCN(c2ccc(NC(=O)c3oc(N4CCC(c5ccccc5)CC4)nc3C(F)(F)F)cn2)CC1` [Compound 182, (Z)—N-(6-(4-((cyanoimino)(pyrrolidin-1-yl)methyl)piperazin-1-yl)pyridin-3-yl)-2-(4-phenylpiperidin-1-yl)-4-(trifluoromethyl)oxazole-5-carboxamide] reads 101 to 500 nM.

Turning to `CC1CCCN(c2nc(C(F)(F)F)c(C(=O)Nc3ccc(N4CCCN(C(=O)[C@H]5CC[C@@H](C(=O)O)CC5)CC4)nc3)o2)C1` (stereo partly shown) [Compound 185, (1s,4s)-4-(4-(5-(2-(3-Methylpiperidin-1-yl)-4-(trifluoromethyl)oxazole-5-carboxamido)pyridin-2-yl)-1,4-diazepane-1-carbonyl)cyclohexanecarboxylic acid], the IC50 was in the range of 101 to 500 nM. The result for `CC1CCCN(c2nc(C(F)(F)F)c(C(=O)Nc3ccc(N4CCCN(C(=O)c5cccc(C(=O)O)c5)CC4)nc3)o2)C1` (stereo not shown) [Compound 190, 3-(4-(5-(2-(3-methylpiperidin-1-yl)-4-(trifluoromethyl)oxazole-5-carboxamido)pyridin-2-yl)-1,4-diazepane-1-carbonyl)benzoic acid] reads 101 to 500 nM.

As to `CC1CCCN(c2nc(C(F)(F)F)c(C(=O)Nc3ccc(N4CCCN(C(=O)C(O)C(F)(F)F)CC4)nc3)o2)C1` (stereo not shown) [Compound 191, 2-(3-methylpiperidin-1-yl)-N-(6-(4-(3,3,3-trifluoro-2-hydroxypropanoyl)-1,4-diazepan-1-yl)pyridin-3-yl)-4-(trifluoromethyl)oxazole-5-carboxamide], the IC50 lay within 101 to 500 nM. `CC1CCCN(c2nc(C(F)(F)F)c(C(=O)Nc3ccc(N4CCN(C(=O)C(O)C(F)(F)F)CC4)nc3)o2)C1` (stereo not shown) [Compound 194, 2-(3-methylpiperidin-1-yl)-N-(6-(4-(3,3,3-trifluoro-2-hydroxypropanoyl)piperazin-1-yl)pyridin-3-yl)-4-(trifluoromethyl)oxazole-5-carboxamide] came in with an IC50 of 11 to 100 nM. Next, `CC1CCCN(c2nc(C(F)(F)F)c(C(=O)Nc3ccc(N4CCN(C(=O)[C@H](O)C5CCCCC5)CC4)nc3)o2)C1` (stereo partly drawn) [Compound 196, N-(6-(4-((R)-2-cyclohexyl-2-hydroxyacetyl)piperazin-1-yl)pyridin-3-yl)-2-(3-methylpiperidin-1-yl)-4-(trifluoromethyl)oxazole-5-carboxamide]: 11 to 100 nM; `CC1CCCN(c2nc(C(F)(F)F)c(C(=O)Nc3ccc(N4CCN(C(=O)[C@H](O)c5ccccc5)CC4)nc3)o2)C1` (stereo partly drawn) [Compound 198, N-(6-(4-((R)-2-hydroxy-2-phenylacetyl)piperazin-1-yl)pyridin-3-yl)-2-(3-methylpiperidin-1-yl)-4-(trifluoromethyl)oxazole-5-carboxamide]: 11 to 100 nM; `O=C(Nc1ccc(N2CCN(C(=O)[C@H](O)c3ccccc3)CC2)nc1)c1oc(N2CCC(c3ccccc3)CC2)nc1C(F)(F)F` [Compound 200, (R)—N-(6-(4-(2-hydroxy-2-phenylacetyl)piperazin-1-yl)pyridin-3-yl)-2-(4-phenylpiperidin-1-yl)-4-(trifluoromethyl)oxazole-5-carboxamide]: 11 to 100 nM.

`O=C(Nc1ccc(N2CCCN(C(=O)C(O)c3cc(F)cc(F)c3)CC2)nc1)c1oc(N2CCC(c3ccccc3)CC2)nc1C(F)(F)F` (stereo not shown) [Compound 202, N-(6-(4-(2-(3,5-difluorophenyl)-2-hydroxyacetyl)-1,4-diazepan-1-yl)pyridin-3-yl)-2-(4-phenylpiperidin-1-yl)-4-(trifluoromethyl)oxazole-5-carboxamide] gave an IC50 of 11 to 100 nM. Next, `O=C(Nc1ccc(N2CCN(C(=O)[C@H](O)c3ccccc3)CC2)nc1)c1oc(N2CCC(c3cccc(Cl)c3)C2)nc1C(F)(F)F` (stereo partly drawn) [Compound 207, 2-(3-(3-chlorophenyl)pyrrolidin-1-yl)-N-(6-(4-((R)-2-hydroxy-2-phenylacetyl)piperazin-1-yl)pyridin-3-yl)-4-(trifluoromethyl)oxazole-5-carboxamide]: 11 to 100 nM. Next, `O=C(Nc1ccc(N2CCN(C(=O)C(O)C(F)(F)F)CC2)nc1)c1oc(N2CCC(c3cccc(Cl)c3)C2)nc1C(F)(F)F` (stereo not shown) [Compound 212, 2-(3-(3-chlorophenyl)pyrrolidin-1-yl)-N-(6-(4-(3,3,3-trifluoro-2-hydroxypropanoyl)piperazin-1-yl)pyridin-3-yl)-4-(trifluoromethyl)oxazole-5-carboxamide]: 11 to 100 nM; `O=C(Nc1ccc(N2CCN(C(=O)[C@H](O)C3CCCCC3)CC2)nc1)c1oc(N2CCC(c3cccc(Cl)c3)C2)nc1C(F)(F)F` (stereo partly drawn) [Compound 213, N-(6-(4-((R)-2-cyclohexyl-2-hydroxyacetyl)piperazin-1-yl)pyridin-3-yl)-2-(3-(3-chlorophenyl)pyrrolidin-1-yl)-4-(trifluoromethyl)oxazole-5-carboxamide]: 11 to 100 nM; `Cc1cccc(Cl)c1NC(=O)N1CCCN(c2ccc(NC(=O)c3oc(N4CCCC(C)C4)nc3C(F)(F)F)cn2)CC1` (stereo not shown) [Compound 215, N-(2-chloro-6-methylphenyl)hexahydro-4-[5-[[[2-(3-methyl-1-piperidinyl)-4-(trifluoromethyl)-5-oxazolyl]carbonyl]amino]-2-pyridinyl]-1H-1,4-diazepine-1-carboxamide]: 11 to 100 nM.
